Results: US10717742B2, “Spiro[3H-indole-3,2′-pyrrolidin]-2(1H)-one compounds and derivatives as MDM2-P53 inhibitors” (Boehringer Ingelheim International GmbH, priority 2015, dated 2020)

Target: p53-MDM2 interaction (GST-MDM2 protein aa 23-117 / biotinylated p53 wt peptide) (Homo sapiens (Human), UniProt Q00987)
Test: Mdm2-p53 Inhibition AlphaScreen
Format: binding
Conditions: GST-MDM2 (aa 23-117) / biotinylated p53 wt peptide
Method: Mdm2-p53 Inhibition AlphaScreen
15 μL of compound in 20% DMSO (serial pre-dilutions of compound are done in 100% DMSO) is pipetted to the wells of a white OptiPlate-96 (Perkin Elmer). A mix consisting of 20 nM GST-MDM2 protein (aa 23-117) and 20 nM biotinylated p53 wt peptide (encompassing aa 16-27 of wt human p53, amino acid sequence […]-Ttds-Lys-Biotin, molecular weight 2132.56 g/mol) is prepared in assay buffer (50 mM Tris/HCl pH 7.2; 120 mM NaCl; 0.1% bovine serum albumin (BSA); 5 mM dithiothreitol (DTT); 1 mM ethylenediaminetetraacetic acid (EDTA); 0.01% Tween 20). 30 μL of the mix is added to the compound dilutions and incubated for 15 min at rt while gently shaking the plate at 300 rounds per minute (rpm). Subsequently, 15 μL of premixed AlphaLISA Glutathione Acceptor Beads and AlphaScreen Streptavidin Donor Beads from PerkinElmer (in assay buffer at a concentration of 10 μg/mL each) are added and the samples are incubated for 30 min at rt in the dark (shaking 300 rpm). Afterwards, the signal is measured in a PerkinElmer Envision HIS Multilabel Reader using the AlphaScreen protocol from Perkin Elmer.
Each plate contains negative controls where biotinylated p53-peptide and GST-MDM2 are left out and replaced by assay buffer. Negative control values are entered as low basis value when using the software GraphPad Prism for calculations. Furthermore, a positive control (5% DMSO instead of test compound; with protein/peptide mix) is pipetted. Determination of IC50 values are carried out using GraphPad Prism 3.03 software (or updates thereof).

Sequence of p53-MDM2 interaction (GST-MDM2 protein aa 23-117 / biotinylated p53 wt peptide) (Q00987 23-117): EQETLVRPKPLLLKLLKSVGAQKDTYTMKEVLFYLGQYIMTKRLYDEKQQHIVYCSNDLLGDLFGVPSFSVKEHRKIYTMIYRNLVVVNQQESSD

`Cc1c(C(=O)O)ccc2c1nc1n2CC[C@H]2[C@@H]1[C@H](c1ccnc(Cl)c1F)[C@]1(C(=O)Nc3cc(Cl)ccc31)N2CC1CC1` [Ib-207] and `CN(O)C(=O)c1ccc2c(c1)nc1n2CC[C@H]2[C@@H]1[C@H](c1cccc(Cl)c1F)[C@]1(C(=O)Nc3cc(Cl)ccc31)N2CC1CC1` [Ib-230] are within 1.5-fold of each other in IC50: 8 nM for the first, 10 nM for the second.

`CNC(=O)c1ccc2c(c1)nc1n2CC[C@H]2[C@@H]1[C@H](c1cccc(Cl)c1F)[C@]1(C(=O)Nc3cc(Cl)ccc31)N2CC1CC1` [Ib-209] and `NC(=O)c1ccc2c(c1)nc1n2CC[C@H]2[C@@H]1[C@H](c1cccc(Cl)c1F)[C@]1(C(=O)Nc3cc(Cl)ccc31)N2CC1CC1` [Ib-210] are within 1.5-fold of each other in IC50: 3 nM for the first, 4 nM for the second.

First: CN(C)C(=O)c1ccc2c(c1)nc1n2CC[C@H]2[C@@H]1[C@H](c1cccc(Cl)c1F)[C@]1(C(=O)Nc3cc(Cl)ccc31)N2CC1CC1 [Ib-211]
Second: CN(C)CCNC(=O)c1ccc2c(c1)nc1n2CC[C@H]2[C@@H]1[C@H](c1cccc(Cl)c1F)[C@]1(C(=O)Nc3cc(Cl)ccc31)N2CC1CC1 [Ib-223]
The IC50 of the first is 2.2-fold higher: 11 nM for the first, 5 nM for the second.

`O=C(NC1CC1)c1ccc2c(c1)nc1n2CC[C@H]2[C@@H]1[C@H](c1cccc(Cl)c1F)[C@]1(C(=O)Nc3cc(Cl)ccc31)N2CC1CC1` [Ib-212] and `CN1CC(NC(=O)c2ccc3c(c2)nc2n3CC[C@H]3[C@@H]2[C@H](c2cccc(Cl)c2F)[C@]2(C(=O)Nc4cc(Cl)ccc42)N3CC2CC2)C1` [Ib-228] are the same in IC50: 5 nM for the first, 5 nM for the second.

Going from `CC(C)(O)CNC(=O)c1ccc2c(c1)nc1n2CC[C@H]2[C@@H]1[C@H](c1cccc(Cl)c1F)[C@]1(C(=O)Nc3cc(Cl)ccc31)N2CC1CC1` [Ib-213] to `O=C(NCCO)c1ccc2c(c1)nc1n2CC[C@H]2[C@@H]1[C@H](c1cccc(Cl)c1F)[C@]1(C(=O)Nc3cc(Cl)ccc31)N2CC1CC1` [Ib-215], the IC50 falls from 7 nM to 4 nM (1.8-fold).

Compared with `O=C(NC(CO)CO)c1ccc2c(c1)nc1n2CC[C@H]2[C@@H]1[C@H](c1cccc(Cl)c1F)[C@]1(C(=O)Nc3cc(Cl)ccc31)N2CC1CC1` [Ib-214], `NCCNC(=O)c1ccc2c(c1)nc1n2CC[C@H]2[C@@H]1[C@H](c1cccc(Cl)c1F)[C@]1(C(=O)Nc3cc(Cl)ccc31)N2CC1CC1` [Ib-222] is 3-fold higher in IC50: 3 nM for the first, 9 nM for the second. The first is the more potent here.

`COCCNC(=O)c1ccc2c(c1)nc1n2CC[C@H]2[C@@H]1[C@H](c1cccc(Cl)c1F)[C@]1(C(=O)Nc3cc(Cl)ccc31)N2CC1CC1` [Ib-216] and `COCCOCCNC(=O)c1ccc2c(c1)nc1n2CC[C@H]2[C@@H]1[C@H](c1cccc(Cl)c1F)[C@]1(C(=O)Nc3cc(Cl)ccc31)N2CC1CC1` [Ib-219] are within 1.5-fold of each other in IC50: 7 nM for the first, 5 nM for the second.

`COCC(COC)NC(=O)c1ccc2c(c1)nc1n2CC[C@H]2[C@@H]1[C@H](c1cccc(Cl)c1F)[C@]1(C(=O)Nc3cc(Cl)ccc31)N2CC1CC1` [Ib-217] and `CC1(NC(=O)c2ccc3c(c2)nc2n3CC[C@H]3[C@@H]2[C@H](c2cccc(Cl)c2F)[C@]2(C(=O)Nc4cc(Cl)ccc42)N3CC2CC2)COC1` [Ib-225] are within 1.5-fold of each other in IC50: 4 nM for the first, 5 nM for the second.

`O=C(NC(CO)(CO)CO)c1ccc2c(c1)nc1n2CC[C@H]2[C@@H]1[C@H](c1cccc(Cl)c1F)[C@]1(C(=O)Nc3cc(Cl)ccc31)N2CC1CC1` [Ib-218] and `CC1(CNC(=O)c2ccc3c(c2)nc2n3CC[C@H]3[C@@H]2[C@H](c2cccc(Cl)c2F)[C@]2(C(=O)Nc4cc(Cl)ccc42)N3CC2CC2)COC1` [Ib-226] are within 1.5-fold of each other in IC50: 6 nM for the first, 5 nM for the second.

`O=C(c1ccc2c(c1)nc1n2CC[C@H]2[C@@H]1[C@H](c1cccc(Cl)c1F)[C@]1(C(=O)Nc3cc(Cl)ccc31)N2CC1CC1)N1CCOCC1` [Ib-220] and `CN1CCN(C(=O)c2ccc3c(c2)nc2n3CC[C@H]3[C@@H]2[C@H](c2cccc(Cl)c2F)[C@]2(C(=O)Nc4cc(Cl)ccc42)N3CC2CC2)CC1` [Ib-221] are the same in IC50: 10 nM for the first, 10 nM for the second.

`O=C(c1ccc2c(c1)nc1n2CC[C@H]2[C@@H]1[C@H](c1cccc(Cl)c1F)[C@]1(C(=O)Nc3cc(Cl)ccc31)N2CC1CC1)N1CC(O)C1` [Ib-227] and `O=C(NC1COCC1O)c1ccc2c(c1)nc1n2CC[C@H]2[C@@H]1[C@H](c1cccc(Cl)c1F)[C@]1(C(=O)Nc3cc(Cl)ccc31)N2CC1CC1` (stereo partly shown) [Ib-229] are the same in IC50: 4 nM for the first, 4 nM for the second.
